Laboratory results from US5543410A, “Pharmacological use of phthaloylhydrazide derivatives; combination and application thereof” (L.I.M.A.D. Limited, priority 1993, dated 1996).

What was measured:
[1] = model systems (micellar phase); times less
Experimental: (§1) In models corresponding to acute purulent inflammation (wounds) caused by inoculation of a suspension of pathogenic microbes, such as E. coli and S. aureus, pentane production within air exhaled by the respective animals was measured.

[2] = system: acute purulent inflammation (wounds) caused by E. coli and S. aureus; conditions: single administration
Experimental: as §1

[3] = system: peroxidation of blood plasma
Experimental: as §1

metabolic products = format: in vivo; conditions: in vivo; read-out: fraction of compound decomposed into 5-aminophthalic acid, oxygen, and nitrogen
[4] = system: proctitis attributable to radiation therapy
Description: B., a patient who was […], complained of burning sensations in the anus, along with frequent and painful urination, after having received radiation therapy for a period of forty-five days. During a rectosigmoidoscopy examination, intense edema and contact hemorrhaging within the rectal mucosae were observed above the tumor. The diagnosis was: proctitis and cystitis arising from radiation therapy. On account of a lack of specific therapeutic measures, the drug was prescribed for the patient according to a dose of 100 mg per day.

[5] = system: inflammation of the mucosae, chronic tonsillitis; assay: inflammation of the mucosae / chronic tonsillitis (gargling); format: in vivo; conditions: gargling solution
AIDS = system: AIDS
Experimental: Treatment began with intramuscular administration of 100 mg doses of the drug, once daily.
The daily dosage of the drug was then increased to 400 mg.

[6] = system: suppuration of a paracolostomy incision
Experimental: The patient cited pain in the region affected by infiltration, and an increase in body temperature was observed. A suppository containing 200 mg of the drug was applied to the incision. […] An identical dose of the drug was administered again twelve hours later.

anal adenocarcinoma = system: anal adenocarcinoma
Description: Kh., a patient who was […], had been diagnosed with an anal adenocarcinoma seven months earlier.
The diagnosis had been verified histologically. The patient cited pain in the anus, constipation, difficulty in defecating, and secretion of mucus and blood from the anus. On account of the patient's categorical refusal to undergo surgery for abdominoperineal excision of the rectum, radiation therapy had been provided in doses of […]. […] Forty days later, the patient underwent another cycle of radiation therapy, with doses of […]. During the next thirty days, the drug was administered in doses of 100 mg every four hours, in the form of rectal suppositories. […] For the next thirty days, the dosage of the drug was increased, and intramuscular administration of 100 mg per day was provided for this patient, along with a rectal suppository (100 mg).

[7] = general pharmacological / toxicological assessment; format: in vivo
[8] = in vivo
[9] = system: convulsions caused by Corazolum and strychnine; conditions: 30 and 60 mg/kg
leucocytes = conditions: inflammation of the cornea
[10] = system: mice exposed to carbon tetrachloride; conditions: 10 to 20 mg/kg; control group 65 percent
[11] = system: chronic inflammation of female genitalia; conditions: 100 mg once each day
Experimental: The drug was administered to these patients in the form of rectal suppositories (to be inserted at night), in doses of 100 mg once each day, for a five-day period. Subsequently, vaginal insertion was performed for an additional period of two days.

[12] = system: perineal cutaneous melanoma
Experimental: Localized excision of the tumor was performed, and the group of lymph nodes in the left inguinal region was removed.
This phenomenon was indicative of the onset of recurrence of the tumor. Intramuscular administration of the drug in 100 mg doses was provided on alternating days.
Beginning on the twentieth day, the drug was administered in 100 mg intramuscular doses every day.

[13] = system: dermatitis of unknown etiology
Experimental: The patient was treated for fourteen days.
The affected cutaneous areas were treated three times daily with a water-soluble emulsion containing 30 mg of the drug, and, on alternating days, suppositories containing 50 mg of the drug (5 mg/kg according to weight) were administered rectally.

[14] = 100 mg suppositories morning and evening
[15] = 100 mg intramuscular on alternating days

Description for autoimmune diseases: Nevertheless, repeated administration of the drug is required in order to accomplish this objective.

In the case of `Nc1cccc2c(=O)[nH][nH]c(=O)c12`, the “antioxidant effectiveness less than previously identified antioxidants” value [1] is reported as “thirty to fifty”, the pentane level attained [2] is reported as “until a normal level was attained” and the “time to reduction in pentane in exhaled air” value [2] is reported as “thirty to sixty”. For the same molecule, the “antioxidant effectiveness versus known antioxidants” value ([3]; blood plasma) was “significantly superior to known antioxidants such as dibunol, alphatocopherol, and superoxydismutaze (SOD)”, the “increase in retardation constant for peroxidation of blood plasma” value ([3]; two to five minutes after administration) was “ten to twelve” and the metabolised (metabolic products) was over 90%. The clinical effect ([4]; 100 mg per day, three days) was “absence of any significant clinical effect”, the “time to decrease of anal burning and painful urination” value [4, 14] was “one” and the “time until pain and burning no longer present” value [4, 14] was “third”. For the same molecule, the “time to normal urination” value ([4]; after the dosage was increased) was “fifth”, the rectosigmoidoscopy finding ([4]; ten days later) was “regeneration of the capillary network within the rectal mucosae was observed” and the “inflammation of the mucosae” value [5] was “favorable results were obtained”. The therapeutic effects (AIDS; 100 mg intramuscular once daily, three days) was “no therapeutic effects had been observed”, the “complications of AIDS” value (AIDS; 5 to 15 mg/kg daily, extended period) was “significant prevention or reduction of complications” and the further symptoms (AIDS; continued daily administration) was “further symptoms of the disease did not appear”. For the same molecule, the therapeutic action (AIDS; daily dose doubled) was “still not observable”, the “effectiveness of standard doses” value (AIDS; standard doses for inflammatory diseases) was “limited effectiveness” and the “time to decline of temperature” value ([6]; 200 mg suppository) was “Six”. The “time until pain ceased” value ([6]; 200 mg suppository applied to incision) was “twenty to thirty”, the wound ([6]; six days of treatment) was “the wound was wholly devoid of pus” and the “edema within soft tissues” value ([6]; twenty-one hours after commencement) was “had decreased significantly”. The tumor size (anal adenocarcinoma; 100 mg every four hours rectal, thirty days, after radiation) was “reduction of the tumor was observed”, the “reduction of anal tumor in relation to its initial dimensions” value (anal adenocarcinoma; 100 mg intramuscular per day plus 100 mg suppository, further thirty days) was “two-thirds” and the “tumor dimensions and intoxication (conclusion)” value (anal adenocarcinoma; combination with radiation therapy) was “reduction of the tumor's dimensions was therefore obtained within a brief period and symptoms of intoxication were eliminated”. For the same molecule, the general condition (anal adenocarcinoma; in vivo) was “an improvement of the patient's general condition was observed”, the toxicity ([7]; acceptable dosages) was “wholly non-toxic” and the “level of pharmacological activity” value ([7]; determined experimentally) was “higher level of pharmacological activity”. The CL renal [8] was 50 to 80 mL/min, the prevention of convulsions [9] was “did not prevent convulsions” and the “leucocyte adhesion properties and chemotaxis” value (leucocytes) was “An increase in leucocyte adhesion properties and intensification of chemotaxis”. For the same molecule, the mortality rate [10] was 14%, the “patients in whom subsequent development of pathological processes was prevented” value (autoimmune diseases; after an initial phase of treatment) was 90% and the principal symptoms (autoimmune diseases; suppositories, intravenous or intramuscular, repeated) was “allows alleviation of the principal symptoms of these diseases”. The time to healing [11] was “eighth”, the “time until vaginal secretions ceased completely” value [11] was “fifth” and the therapeutic effect ([11]; second day) was “the therapeutic effect was observable”. The “infiltration in the region of the postoperative scar” value ([12]; 100 mg intramuscular every day, checkup thirty days later) was “disappearance of infiltration in the region of the postoperative scar was observed”, the abnormal salivation [12, 15] was “On the third day after the commencement of treatment, abnormal salivation began” and the vomiting and diuresis [12, 15] was “vomiting occurred on the fourth day, along with an increase in diuresis”. The “cessation of symptoms (salivation, vomiting, diuresis)” value ([12]; in vivo) was “gradually ceased on the thirteenth and fourteenth days”, the “time to completed epithelization” value ([13]; 30 mg emulsion three times daily, 50 mg suppositories on alternating days) was “fourteenth” and the affected cutaneous areas ([13]; after the second day) was “began to become drier”.
